For one assay, the system named is caspases 3/7. Nature of the assay: Caspases 3/7 activation in HL60 cells (DEVD reagent). It is filed as cell-based, human. Conditions: 48 hours. The source says:
(§1) 7223, using standard commercially available diagnostic kits (Calbiochem, USA). Assay reagents used were DEVD for caspases 3/7, […] for caspases 8, and LEHD for caspases 9. Moreover, colchicine was used as reference compound that induces this activity of caspases.

Another assay relates to caspases 8. Description: Caspases 8 activation in HL60 cells (IEDT reagent). It is filed as cell-based, human. Conditions: 48 hours, 1 μM, 0.1 μM and 0.01 μM.
Excerpt: as §1

A further assay deals with caspases 9. Nature of the assay: Caspases 9 activation in HL60 cells (LEHD reagent). It counts as cell-based, human. Conditions: 48 hours, 1 μM, 0.1 μM and 0.01 μM.
Excerpt: as §1

In assay [1] the test system is KB3 (epitheloid lung cancer) cell lines. Nature of the assay: Cell growth inhibition (cytotoxicity), MTS assay, KB3 cell line. It counts as cell-based. Conditions: KB3; Table 3A; MTS assay, triplicate; read-out: KB3 IC50. The method, then:
Cell growth inhibition was determined by the MTS assay; the number of viable cells were proportional to the extent of formazan production in the presence or absence of drugs. […]
For orientation: Formazan colour is commonly taken as a measure of viable cells.

The subject of assay [2] is U373 (human glioblastoma-astrocytoma). Description: Growth inhibition, MTT colorimetric assay, U373. Conditions: Homo sapiens, U373 MG, 72 h; glioma; 3 days with drug; means of six values; unit inferred; read-out: IC50 U373. It is filed as cell-based. In short, it runs like this: (§2)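 Cells were cultured with compound for 3 days, and inhibition of proliferation was read by MTT colorimetric assay. Values are IC50, each the mean of six determinations with standard errors below 5% of the mean.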

Another assay relates to U138 MG (human glioma). Description: Growth inhibition, MTT colorimetric assay, U138. It is filed as cell-based. Particulars: Homo sapiens, U138-MG, 72 h; glioma; 3 days with drug; means of six values; unit inferred; read-out: IC50 U138. In short, it runs like this: as §2
The subject of another assay is GL19. Description: Growth inhibition, MTT colorimetric assay, GL19. It counts as cell-based. Conditions: GL19, 72 h; 3 days with drug; means of six values; unit inferred; read-out: IC50 GL19. In a few lines:
(§3)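 3-day continuous drug exposure; MTT readout; IC50 = mean of 6 values, SE <5% of mean.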

The next assay deals with RhTP (rhabdomyosarcoma). Description: Growth inhibition, MTT colorimetric assay, RhTp. Particulars: 72 h; 3 days with drug; means of six values; unit inferred; read-out: IC50 RhTp. It is filed as cell-based. In short, it runs like this: as §3
Another assay concerns KaKa. Nature of the assay: Growth inhibition, MTT colorimetric assay, KaKa. It is filed as cell-based. Conditions: 72 h; 3 days with drug; means of six values; unit inferred; read-out: IC50 KaKa. In a few lines:
as §3

Another assay deals with Host. Nature of the assay: Growth inhibition, MTT colorimetric assay, Host. It counts as cell-based. Particulars: 72 h; 3 days with drug; means of six values; unit inferred; read-out: IC50 Host. In short, it runs like this: as §3
The test system of the next assay is SKMEL28 (human melanoma). Nature of the assay: Growth inhibition, MTT colorimetric assay, SKMEL-28. It counts as cell-based. Conditions: Homo sapiens, SK-MEL-28, 72 h; melanoma; 3 days with drug; means of six values; unit inferred; read-out: IC50 SKMEL-28. In a few lines: as §3
The test system of a further assay is B16-F10 (mouse melanoma). Description: Growth inhibition, MTT colorimetric assay, B16F10. It is filed as cell-based. Conditions: Mus musculus, B16-F10, 72 h; melanoma; 3 days with drug; means of six values; unit inferred; read-out: IC50 B16F10. In a few lines:
as §2

Assay [3] has as its system HT-22, an immortalized mouse hippocampal cell line. Description: Neuroprotection of HT-22 cells against toxic insults (calcein viability assay). It is filed as cell-based. Here is the method: It is known (P. Aoun, 2003 Eur. J. Pharm. 472:65-71) that Peroxisome proliferator-activated receptors (PPARs) are involved in regulating many metabolic and inflammatory processes. The present invention explores the role of PPAR ligands in protecting neuronal cultures from toxic insults. For that purpose, the new PPAR agonists described in Example 1 were screened for their potential role as neuroprotective compounds. Experiments were performed using HT-22, an immortalized mouse hippocampal cell line, and SK-N-SH, a human neuroblastoma cell line. HT-22 was selected because it expresses PPARγ receptors. Cell viability against glutamate, hydrogen peroxide (H2O2), and serum deprivation insults was determined using a calcein assay. […] Additionally, compounds were protective even when administered simultaneously with glutamate, or for up to 8 h postglutamate insult.
HT-22, an immortalized mouse hippocampal cell line, and SK-N-SH, a human neuroblastoma cell line, were used. HT-22 cells were obtained from David Schubert (Salk Institute, San Diego, Calif.). The HT-22 line was originally selected from HT-4 cells based on glutamate sensitivity. SK-N-SH cells were obtained from ATCC (Manassas, Va.). HT-22 and SK-N-SH cells were grown to confluency in Dulbecco's modified essential medium (DMEM) and RPMI-1640 media, respectively, and supplemented with 10% charcoal/dextran-treated fetal bovine serum (FBS) and […] gentamicin at 37° C. under 95% air/5% CO2. HT-22 cells were plated at a density of 50,000 cells/ml (5000 cells/well), and SK-N-SH cells were plated at a density of 120,000-150,000 cells/ml (12,000-15,000 cells/well) in 96-well plates. In most studies, wells were pretreated with PPAR ligands over a wide dose range at various times prior to being subjected to either glutamate, hydrogen peroxide, or serum deprivation insults. In some studies, the insults were applied prior to the addition of the PPAR ligand.
The following analogues were tested on the HT22 cell line for their neuroprotective effect against glutamate insult and for their anti-inflammatory activity on relevant, models including HT22 cell line.

Assay [4] relates to bloodstream forms of T. brucei and T. congolense. Description: Trypanocidal activity in vitro, Alamar Blue assay. It counts as cell-based, Trypanosoma brucei and T. congolense. Particulars: 48 h total incubation. In a few lines:
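Bloodstream-form trypanosomes exposed to compounds in H2O for 24 h, then Alamar Blue added for a further 24 h (48 h total). Absorbance read at 550 nm with 630 nm reference; duplicate wells, three repeats. HL-60 cytotoxicity run alongside: 43 h plus 5 h dye.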
(Alamar Blue is a resazurin reagent that responds to reducing activity.)

In assay [5] the test system is bloodstream forms of T. congolense STIB910. Particulars: T. congolense STIB910, identical experimental conditions, Merschjohann et al. (2001); cited from earlier work.
The test system of assay [6] is bloodstream forms of T. brucei 427-221a. Conditions: identical experimental conditions, Merschjohann et al. (2001); cited from earlier work.

Converted amounts (≈) assume the structure as drawn.

`Cc1ccc(CN(Cc2ccc(O)c3ncccc23)Cc2ccc(O)c3ncccc23)cc1` [BPM19,107, 5,5′-(4-(methyl)benzylazanediyl)bis(methylene)diquinolin-8-ol]: the “activation of caspases 3/7” value in the assay on caspases 3/7 (0.01 μM) is recorded as “neither BPM18,708 nor BPM19,107 has an effect”; in the assay with caspases 3/7 (0.1 μM) it was “strong effect”; in the assay with caspases 3/7 (1 μM), “strong effect”. For the same compound, the “activation of caspases 8” value in the assay with caspases 8 is given as “no effect”. Also, the “activation of caspases 9” value in the assay with caspases 9 was “no effect”. Also, the IC50 in assay [1] came out at 3 nM; in [2], 96 nM; in the assay on U138 MG (human glioma), 81 nM; in the assay on GL19, 1030 nM; in the assay on RhTP (rhabdomyosarcoma), 84 nM; in the assay with KaKa, 710 nM. The figures for the concentration for half-maximal inhibition (IC50) in the assay on Host, with SKMEL28 (human melanoma) and with B16-F10 (mouse melanoma) were 2460 nM, 4780 nM and 88 nM, respectively. Further, the “neuroprotection from H2O2 insult” value in assay [3] is given as “dose-dependent neuroprotection”. Moreover, the “neuroprotection from glutamate insult” value in [3] is “dose-dependent neuroprotection”. In addition, the GI50 in [4] (50% growth inhibition, read-out: GI50) was determined as 310 ± 10 nM. In addition, in assay [4] (lowest concentration at which all cells were killed, read-out: MIC), the MIC was found to be 1 µM (≈ 0.436 µg/mL).

With `N=C(N)c1ccc(N=NNc2ccc(C(=N)N)cc2)cc1` [diminazene aceturate], the IC50 in assay [5] is 500 nM.

Consider `Cc1ccc(C(=O)Nc2ccc(S(=O)(=O)O)c3cc(S(=O)(=O)O)cc(S(=O)(=O)O)c23)cc1NC(=O)c1cccc(NC(=O)Nc2cccc(C(=O)Nc3cc(C(=O)Nc4ccc(S(=O)(=O)O)c5cc(S(=O)(=O)O)cc(S(=O)(=O)O)c45)ccc3C)c2)c1` [suramin], for which the IC50 in [6] was 400 nM.

What is called IC50 is the concentration needed to halve the response being measured. For orientation: GI50 means the concentration giving 50% growth inhibition. What is called MIC is the lowest concentration found to suppress growth.

Values taken from patent publication US20110251238A1, “PPAR AGONIST COMPOSITIONS AND METHODS OF USE” (BIOPHARMED, priority 2008, published 2011).
